Assay results reported in article PMC12837263, “β,β-Dimethylacrylalkannin Restores Colistin Efficacy Against mcr- and TCS-Mediated Resistant Gram-Negative Bacteria via Membrane Disturbance” (Antibiotics, 2025).

Tests used:
Format in all cases: cell-based
[1] = system: K. pneumoniae (including mcr-1, mcr-8, mcr-9, pmrA/B, phoP, and mgrB); test: Checkerboard assay, colistin-resistant K. pneumoniae (summary); details: with β,β-Dim
Protocol: (§1) The FICI of β,β-Dim–colistin combination was determined by a checkerboard assay. Briefly, two-fold serial dilutions of β,β-Dim and colistin were prepared in a 96-well plate. After incubation at 37 °C for 18 h with bacterial suspension (10^6 CFU/mL), OD600 values were measured. FICI = (MICβ,β-Dim in combination/MICβ,β-Dim) + (MICcolistin in combination/MICcolistin). The synergistic effect of β,β-Dim with other antibiotics was measured in the same way. Synergy was considered to be an FICI ≤ 0.5.

[2] = system: E. coli (including mcr-1, mcr-3, and pmrA/B); test: Checkerboard assay, colistin-resistant E. coli (summary); details: with β,β-Dim
Protocol: as §1

[3] = system: E. coli spheroplasts; test: Membrane permeability of spheroplasts (PI)
Protocol: The cytoplasmic membrane LPS concentrations of E. coli BW25113, E. coli BW25113-mcr-1, and E. coli BW25113-pmrBR93P were quantified using a Chromogenic LAL Endotoxin Assay Kit (Cat No, C0273S, Beyotime, Shanghai, China). Firstly, spheroplasts were prepared according to a previously described method to remove the outer membrane. Briefly, bacterial cells were washed with Tris buffer and resuspended in Tris buffer containing 20% sucrose. EDTA (250 μL, 10 mg/mL) and lysozyme (1 mL, 10 mg/mL) were added, followed by incubation at 30 °C for 1 h with shaking at 80 rpm. Trypsin (500 μL, 10 mg/mL) was added and incubated for an additional 15 min. […] Then, the released LPS was quantified by reacting with LPS detection reagents, and absorbance was measured at 405 nm.
The S. aureus ATCC 29213 bacterial suspension (OD600 = 0.5) was incubated with fluorescent probe propidium iodide (PI, Cat No. C1008S, Beyotime, Shanghai, China, final concentration 10 µM) for 30 min. […] Fluorescence intensity was measured at an excitation/emission wavelength of 535/615 nm. The cytoplasmic membrane permeability of E. coli BW25113, E. coli BW25113-mcr-1, and E. coli BW25113-pmrBR93P induced by β,β-Dim was assessed by preparing spheroplasts.

[4] = system: S. aureus ATCC 29213; test: Membrane potential, proton gradient and PMF
[5] = system: S. aureus ATCC 29213; test: Effect of membrane components on antibacterial activity
Protocol: The effects of membrane components on the antibacterial activity of β,β-Dim were evaluated using the checkerboard method by exogenous addition of phosphatidylethanolamine (PE), phosphatidylglycerol (PG), and cardiolipin (CL). The same procedure was followed with pre-addition of the respective components to CAMHB to explore their impact on the β,β-Dim–colistin combination in E. coli.

colistin
enhancement of colistin activity (MIC reduction) [1]: 8–1024 fold
improvement of colistin efficacy (MIC reduction) [2]: 4–32 fold

CC(C)=CC[C@H](OC(=O)C=C(C)C)C1=CC(=O)c2c(O)ccc(O)c2C1=O [β,β-Dim, β,β-dimethylacrylalkannin]
membrane permeability [3]: markedly increased membrane permeability
membrane potential, proton gradient, PMF [4]: increased membrane potential in S. aureus ATCC 29213, reduced the proton gradient, and dissipated the PMF
antibacterial activity with exogenous PE, PG, and CL [5]: attenuated the antibacterial activity
increase of MIC by CL ([5]; CL 40 μM): 4 fold
